According to PMC7534897 (Bioorganic & Medicinal Chemistry Letters, 2020):
In brackets after ≈: the same amount, converted by molar mass. Where two headings read alike, the source gives them in different places.

What was measured:
[1] = test system: EV-71A; conditions: cited from earlier work
[2] = test system: EV-A71; conditions: read-out: EC50, EV-A71; cited from earlier work
[3] = test system: Enterovirus 71 (Tainin/4643/98 strain); experiment: Inhibition of EV-A71 replication in Vero 76 cells; assay type: cell-based, Enterovirus A71; conditions: for EC50: Enterovirus A
[4] = biological target: A1 adenosine receptor; conditions: cited from earlier work
[5] = test system: coxsackie virus B3, enterovirus 68 and poliovirus 1; experiment: organism not typed; assay type: cell-based; conditions: read-out: EC50 values, range over three viruses
[6] = biological target: A3 adenosine receptor; conditions: read-out: Ki, A3 adenosine receptor; binds as an agonist; cited from earlier work
[7] = test system: Enterovirus 68 (US/KY/14–18953 strain); experiment: Inhibition of enterovirus 68 in RD cells; assay type: cell-based; conditions: Enterovirus D, read-out: EC50/90 values against enterovirus 68, range

NC(=O)c1ncn([C@@H]2O[C@H](CO)[C@@H](O)[C@H]2O)n1 [Compound 5, ribavirin]
IC50, EV-71A viral yield in infected cells [1]: 65 µg/mL (≈ 266 µM)
IC50 ([1]; read-out: IC50, EV-71A viral yield in infected cells): 266 µM

OC[C@H]1O[C@@H](n2cnc3c(NCc4ccccc4)ncnc32)[C@H](O)[C@@H]1O [Compound 6, N ^6-benzyl-adenosine]
EC50 [2]: 5 µM

CCOC(=O)c1ccc(OCCC2CCN(c3ccc(C)nn3)CC2)cc1 [Compound 8, Pirodavir, reference compound]
EC50 ([3]; Vero 76, read-out: EC50 values of pirodavir, range (neutral red)): 0.056 to 0.22 µg/mL
EC50 ([3]; Vero 76, read-out: EC50 values of pirodavir, range (visual)): 0.036 to 0.32 µg/mL

NC(=O)c1ncn([C@H]2[C@H](O)[C@H](O)[C@]3(CO)C[C@H]23)n1 [Compound 9]
Activity against EV-A71 in words ([3]; at 50 µM, higher concentrations not tested): inactive

OC[C@H]1O[C@@H](n2cnc3c(NC(C4CC4)C4CC4)ncnc32)[C@H](O)[C@@H]1O [Compound 10]
Activity against EV-A71 in words [3]: inactive

OC[C@H]1O[C@@H](n2cnc3c(NC(C4CCC4)C4CCC4)ncnc32)[C@H](O)[C@@H]1O [Compound 11]
Activity against EV-A71 in words [3]: inactive
Ki ([4]; read-out: Ki, A1 receptor): < 0.01 µM

OC[C@H]1O[C@@H](n2cnc3c(NC(C4CCC4)C4CCC4)nc(Cl)nc32)[C@H](O)[C@@H]1O [Compound 12]
Ki ([4]; read-out: Ki, A1 receptor): < 0.01 µM

OC[C@@]12C[C@@H]1[C@@H](n1cnc3c(NC(C4CC4)C4CC4)nc(Cl)nc31)[C@H](O)[C@@H]2O [Compound 16]
Activity against EV-A71 in words [3]: Intermediate potency

CC(C)[C@@H](Nc1nc(Cl)nc2c1ncn2[C@H]1[C@H](O)[C@H](O)[C@]2(CO)C[C@H]12)C1CC1 [Compound 17]
EC50 [5]: 16 to 32 µM
Ki ([4]; read-out: Ki, A1 adenosine receptor, binds as an agonist): 0.103 µM
Ki [6]: 1.24 µM

CSc1nc(N[C@H](C(C)C)C2CC2)c2ncn([C@H]3[C@H](O)[C@H](O)[C@]4(CO)C[C@H]34)c2n1 [Compound 20, (1R,2R,3S,4R,5S)-4-(6-((1-Cyclopropyl-2-methylpropyl)amino)-2-(methylthio)-9H-purin-9-yl)-1-(hydroxymethyl)bicyclo[3.1.0]hexane-2,3-diol]
EC50 ([3]; Vero 76, read-out: Visual EC50): > 100 µM

CC(C)[C@H](Nc1nc(Cl)nc2c1ncn2[C@H]1[C@H](O)[C@H](O)[C@]2(CO)C[C@H]12)C1CC1 [Compound 21]
Activity against EV-A71 in words [3]: Intermediate potency

CC[C@@H](Nc1nc(SC)nc2c1ccn2[C@H]1[C@H](O)[C@H](O)[C@]2(CO)C[C@H]12)C1CC1 [Compound 26]
EC50 ([3]; Vero 76, read-out: Visual EC50): 16 µM

CC[C@H](Nc1nc(Cl)nc2c1ncn2[C@H]1[C@H](O)[C@H](O)[C@]2(CO)C[C@H]12)C1CC1 [Compound 27]
EC50 ([3]; Vero 76, read-out: Visual EC50): 16 µM

OC[C@@]12C[C@@H]1[C@@H](n1cnc3c(NC(C4CCC4)C4CCC4)nc(Cl)nc31)[C@H](O)[C@@H]2O [Compound 30]
Activity against EV-A71 in words [3]: prevented inhibition

O[C@@H]1[C@H](O)[C@@H]2C[C@@H]2[C@H]1n1cnc2c(NC(C3CC3)C3CC3)nc(Cl)nc21 [Compound 31]
SI (selectivity index) at EV-A71 ([3]; visual and neutral red methods): ≥ 10
EC50 [7]: 8 to 16 µM

O[C@@H]1[C@H](O)[C@@H]2C[C@@H]2[C@H]1n1cnc2c(NC(C3CCC3)C3CCC3)nc(Cl)nc21 [Compound 42]
EC50 ([3]; Vero 76, read-out: Visual EC50): > 16 µM

CCOC(=O)[C@@]12C[C@@H]1[C@@H](n1cnc3c(NC(C4CC4)C4CC4)nc(Cl)nc31)[C@H](O)[C@@H]2O [Compound 44]
Activity against EV-A71 in words [3]: inactive

CC(C)[C@@H](Nc1nc(Cl)nc2c1ncn2[C@H]1[C@H](O)[C@H](O)[C@]2(CF)C[C@H]12)C1CC1 [Compound 48, (1S,2R,3S,4R,5S)-4-(2-Chloro-6-((1-cyclopropyl-2-methylpropyl)amino)-9H-purin-9-yl)-1-(fluoromethyl)bicyclo[3.1.0]hexane-2,3-diol]
Activity against EV-A71 in words [3]: intermediate potency
EC50 ([3]; Vero 76, read-out: Visual EC50): 3.6 µM
EC50 [7]: 8 to 16 µM

CC(C)[C@@H](Nc1nc(Cl)nc2c1ncn2[C@H]1[C@H](O)[C@H](O)[C@]2(CCl)C[C@H]12)C1CC1 [Compound 49, (1S,2R,3S,4R,5S)-4-(2-Chloro-6-((1-cyclopropyl-2-methylpropyl)amino)-9H-purin-9-yl)-1-(chloromethyl)bicyclo[3.1.0]hexane-2,3-diol]
Activity against EV-A71 in words [3]: intermediate potency

CSC[C@@]12C[C@@H]1[C@@H](n1cnc3c(N[C@H](C(C)C)C4CC4)nc(Cl)nc31)[C@H](O)[C@@H]2O [Compound 50, (1S,2R,3S,4R,5S)-4-(2-Chloro-6-((1-cyclopropyl-2-methylpropyl)amino)-9H-purin-9-yl)-1-((methylthio)methyl)bicyclo[3.1.0]hexane-2,3-diol]
Activity against EV-A71 in words [3]: reduced inhibition

CC(C)[C@@H](Nc1nc(Cl)nc2c1ncn2[C@H]1[C@H](O)[C@H](O)[C@]2(CN=[N+]=[N-])C[C@H]12)C1CC1 [Compound 51, (1R,2R,3S,4R,5S)-1-(Azidomethyl)-4-(2-chloro-6-((1-cyclopropyl-2-methylpropyl)amino)-9H-purin-9-yl)bicyclo[3.1.0]hexane-2,3-diol]
Activity against EV-A71 in words [3]: intermediate potency

CC(C)[C@@H](Nc1nc(Cl)nc2c1ncn2[C@H]1[C@H](O)[C@H](O)[C@]2(CN)C[C@H]12)C1CC1 [Compound 52, (1R,2R,3S,4R,5S)-1-(Aminomethyl)-4-(2-chloro-6-((1-cyclopropyl-2-methylpropyl)amino)-9H-purin-9-yl)bicyclo[3.1.0]hexane-2,3-diol]
Activity against EV-A71 in words [3]: reduced inhibition
